Reference: ChEMBL document CHEMBL1201862, “PubChem BioAssay data set” (2004)
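Tested at 5 concentrations; 48 h exposure; 96-well plates; endpoints linearly interpolated, else capped at highest concentration. Here, GI50 denotes the concentration required for 50% inhibition of growth.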 Active and inactive are the calls of the source. No stated cut-off is given here; in the data, active = GI50 up to about 1.1 µM and inactive = higher.

Columns and labels:
Test in all cases: inhibition of tumour cell growth, NCI panel, 48 h
BT-549 = test system: BT-549
HL-60 = test system: HL-60
MDA-MB-231 = test system: MDA-MB-231
KM12 = test system: KM12
M14 = test system: M14
EKVX = test system: EKVX
A498 = test system: A498
LOX IMVI = test system: LOX IMVI
HCT-116 = test system: HCT-116
OVCAR-5 = test system: OVCAR-5
SK-OV-3 = test system: SK-OV-3
HCT-15 = test system: HCT-15
786-0 = test system: 786-0
HOP-62 = test system: HOP-62
RXF 393 = test system: RXF 393
SF-295 = test system: SF-295
NCI/ADR-RES = test system: NCI/ADR-RES
IGROV-1 = test system: IGROV-1
UACC-257 = test system: UACC-257
CCRF-CEM = test system: CCRF-CEM
SNB-75 = test system: SNB-75
MCF7 = test system: MCF7
MDA-MB-435 = test system: MDA-MB-435
MOLT-4 = test system: MOLT-4
RPMI-8226 = test system: RPMI-8226
NCI-H522 = test system: NCI-H522
OVCAR-4 = test system: OVCAR-4
UACC-62 = test system: UACC-62
OVCAR-3 = test system: OVCAR-3
TK-10 = test system: TK-10
SF-268 = test system: SF-268
SW-620 = test system: SW-620
NCI-H226 = test system: NCI-H226
SNB-19 = test system: SNB-19
SK-MEL-2 = test system: SK-MEL-2
PC-3 = test system: PC-3
MDA-N = test system: MDA-N
NCI-H23 = test system: NCI-H23
NCI-H460 = test system: NCI-H460
SR = test system: SR
SN12C = test system: SN12C
ACHN = test system: ACHN
Hs-578T = test system: Hs-578T
OVCAR-8 = test system: OVCAR-8
U-251 = test system: U-251
UO-31 = test system: UO-31
CAKI-1 = test system: CAKI-1
Malme-3M = test system: Malme-3M
SK-MEL-5 = test system: SK-MEL-5
HT-29 = test system: HT-29
HOP-92 = test system: HOP-92
DU-145 = test system: DU-145
HCC 2998 = test system: HCC 2998
COLO 205 = test system: COLO 205
SK-MEL-28 = test system: SK-MEL-28
SF-539 = test system: SF-539
A549 = test system: A549
K562 = test system: K562
T47D = test system: T47D
DLD-1 = test system: DLD-1
DMS-114 = test system: DMS-114
LXFL 529 = test system: LXFL 529
KM-20L2 = test system: KM-20L2
SNB-78 = test system: SNB-78
DMS-273 = test system: DMS-273

CO/N=C(\C)c1ccc(Nc2c3ccccc3nc3occc23)cc1
GI50 (BT-549): 0.845 µM (active)
GI50 (HL-60): 0.254 µM (active)
GI50 (MDA-MB-231): 0.741 µM (active)
GI50 (KM12): 0.201 µM (active)
GI50 (M14): 0.397 µM (active)
GI50 (EKVX): 3.74 µM (inactive)
GI50 (A498): 0.773 µM (active)
GI50 (LOX IMVI): 0.59 µM (active)
GI50 (HCT-116): 0.374 µM (active)
GI50 (OVCAR-5): 4.08 µM (inactive)
GI50 (SK-OV-3): 1.16 µM (inactive)
GI50 (HCT-15): 0.191 µM
GI50 (786-0): 0.74 µM (active)
GI50 (HOP-62): 1.27 µM (inactive)
GI50 (RXF 393): 0.0813 µM (active)
GI50 (SF-295): 0.207 µM (active)
GI50 (NCI/ADR-RES): 0.181 µM (active)
GI50 (IGROV-1): 0.233 µM (active)
GI50 (UACC-257): 14.3 µM (inactive)
GI50 (CCRF-CEM): 0.47 µM (active)
GI50 (SNB-75): 0.41 µM (active)
GI50 (MCF7): 0.168 µM (active)
GI50 (MDA-MB-435): 0.0451 µM (active)
GI50 (MOLT-4): 0.366 µM (active)
GI50 (RPMI-8226): 0.429 µM (active)
GI50 (NCI-H522): < 0.0317 µM (active)
GI50 (OVCAR-4): 0.902 µM (active)
GI50 (UACC-62): 0.38 µM (active)
GI50 (OVCAR-3): 0.284 µM (active)
GI50 (TK-10): 1.21 µM (inactive)
GI50 (SF-268): 0.718 µM (active)
GI50 (SW-620): 0.33 µM (active)
GI50 (NCI-H226): 4.34 µM (inactive)
GI50 (SNB-19): 2.05 µM (inactive)
GI50 (SK-MEL-2): 0.244 µM (active)
GI50 (PC-3): 0.527 µM (active)
GI50 (MDA-N): 0.0855 µM (active)
GI50 (NCI-H23): 2.36 µM (inactive)
GI50 (NCI-H460): 0.426 µM (active)
GI50 (SR): 0.0373 µM (active)
GI50 (SN12C): 1.4 µM (inactive)
GI50 (ACHN): 0.568 µM (active)
GI50 (Hs-578T): 0.482 µM (active)
GI50 (OVCAR-8): 0.841 µM (active)
GI50 (U-251): 0.522 µM (active)
GI50 (UO-31): 2.42 µM (inactive)
GI50 (CAKI-1): 0.318 µM (active)
GI50 (Malme-3M): 0.313 µM (active)
GI50 (SK-MEL-5): 0.323 µM (active)
GI50 (HT-29): 0.284 µM (active)
GI50 (HOP-92): 12.9 µM (inactive)
GI50 (DU-145): 1.07 µM (active)
GI50 (HCC 2998): 0.322 µM (active)
GI50 (COLO 205): 0.302 µM (active)
GI50 (SK-MEL-28): 1.43 µM (inactive)
GI50 (SF-539): 0.383 µM (active)
GI50 (A549): 0.643 µM (active)
GI50 (K562): 0.195 µM (active)
GI50 (T47D): 0.522 µM (active)

COc1ccc2c3c([nH]c2c1[N+](=O)[O-])C(C)N(Cc1ccccc1)CC3 (configuration not stated)
GI50 (HL-60): 2.18 µM (inactive)
GI50 (KM12): 3.59 µM (inactive)
GI50 (M14): 3.76 µM (inactive)
GI50 (EKVX): 40.3 µM (inactive)
GI50 (DLD-1): > 100 µM (inactive)
GI50 (DMS-114): 3.39 µM (inactive)
GI50 (A498): 2.4 µM (inactive)
GI50 (LOX IMVI): 3.91 µM (inactive)
GI50 (HCT-116): 3.08 µM (inactive)
GI50 (OVCAR-5): 43.3 µM (inactive)
GI50 (HCT-15): 3.61 µM
GI50 (786-0): 4.35 µM (inactive)
GI50 (HOP-62): 2.07 µM (inactive)
GI50 (RXF 393): 3.21 µM (inactive)
GI50 (SF-295): 2.02 µM (inactive)
GI50 (IGROV-1): 3.57 µM (inactive)
GI50 (UACC-257): 2.39 µM (inactive)
GI50 (CCRF-CEM): 2.51 µM (inactive)
GI50 (LXFL 529): 5.07 µM (inactive)
GI50 (MOLT-4): 3.2 µM (inactive)
GI50 (RPMI-8226): 2.43 µM (inactive)
GI50 (OVCAR-4): 13.9 µM (inactive)
GI50 (UACC-62): 3.1 µM (inactive)
GI50 (OVCAR-3): 3.52 µM (inactive)
GI50 (TK-10): 9.25 µM (inactive)
GI50 (SF-268): 2.02 µM (inactive)
GI50 (SW-620): 2.11 µM (inactive)
GI50 (NCI-H226): 4.49 µM (inactive)
GI50 (SNB-19): 9.1 µM (inactive)
GI50 (SK-MEL-2): 3.52 µM (inactive)
GI50 (KM-20L2): 3.78 µM (inactive)
GI50 (NCI-H23): 7.94 µM (inactive)
GI50 (NCI-H460): 2.94 µM (inactive)
GI50 (SR): 4.49 µM (inactive)
GI50 (SN12C): 5.81 µM (inactive)
GI50 (ACHN): 6.31 µM (inactive)
GI50 (OVCAR-8): 3.72 µM (inactive)
GI50 (U-251): 2.67 µM (inactive)
GI50 (UO-31): 13.8 µM (inactive)
GI50 (CAKI-1): 2.47 µM (inactive)
GI50 (SNB-78): 3.59 µM (inactive)
GI50 (HT-29): 2.92 µM (inactive)
GI50 (HCC 2998): 11.5 µM (inactive)
GI50 (COLO 205): 3.17 µM (inactive)
GI50 (DMS-273): 1.04 µM (active)
GI50 (SK-MEL-28): 7.69 µM (inactive)
GI50 (SF-539): 1.79 µM (inactive)
GI50 (A549): 5.05 µM (inactive)
GI50 (K562): 0.643 µM (active)

C/C=C(\C)C(=O)OC1C2C(C)C(=O)OC2C(O)C(C)C2C=CC(=O)C21C (configuration not stated)
GI50 (BT-549): 7.5 µM (inactive)
GI50 (HL-60): 3.24 µM (inactive)
GI50 (MDA-MB-231): 3.69 µM (inactive)
GI50 (KM12): 11.1 µM (inactive)
GI50 (M14): 14.9 µM (inactive)
GI50 (EKVX): 11.7 µM (inactive)
GI50 (A498): 16.1 µM (inactive)
GI50 (LOX IMVI): 13.2 µM (inactive)
GI50 (HCT-116): 9.59 µM (inactive)
GI50 (OVCAR-5): 19.5 µM (inactive)
GI50 (SK-OV-3): 16.6 µM (inactive)
GI50 (HCT-15): 10.6 µM
GI50 (786-0): 12.1 µM (inactive)
GI50 (HOP-62): 18.2 µM (inactive)
GI50 (RXF 393): 8.73 µM (inactive)
GI50 (SF-295): 14.7 µM (inactive)
GI50 (NCI/ADR-RES): 14.6 µM (inactive)
GI50 (IGROV-1): 8.69 µM (inactive)
GI50 (UACC-257): 12.7 µM (inactive)
GI50 (CCRF-CEM): 3.06 µM (inactive)
GI50 (SNB-75): 15.8 µM (inactive)
GI50 (MCF7): 7.85 µM (inactive)
GI50 (MDA-MB-435): 12.9 µM (inactive)
GI50 (MOLT-4): 8.47 µM (inactive)
GI50 (RPMI-8226): 4.61 µM (inactive)
GI50 (NCI-H522): 2.69 µM (inactive)
GI50 (OVCAR-4): 16.9 µM (inactive)
GI50 (UACC-62): 10.5 µM (inactive)
GI50 (OVCAR-3): 10.8 µM (inactive)
GI50 (TK-10): 12.5 µM (inactive)
GI50 (SF-268): 18.6 µM (inactive)
GI50 (SW-620): 14 µM (inactive)
GI50 (NCI-H226): 16.9 µM (inactive)
GI50 (SNB-19): 13.2 µM (inactive)
GI50 (SK-MEL-2): 17.8 µM (inactive)
GI50 (PC-3): 16.8 µM (inactive)
GI50 (MDA-N): 8.81 µM (inactive)
GI50 (NCI-H23): 10.4 µM (inactive)
GI50 (NCI-H460): 4.49 µM (inactive)
GI50 (SR): 2.18 µM (inactive)
GI50 (SN12C): 14.9 µM (inactive)
GI50 (ACHN): 12.3 µM (inactive)
GI50 (Hs-578T): 13.3 µM (inactive)
GI50 (OVCAR-8): 11.9 µM (inactive)
GI50 (U-251): 11.5 µM (inactive)
GI50 (UO-31): 14.8 µM (inactive)
GI50 (CAKI-1): 13 µM (inactive)
GI50 (Malme-3M): 12.6 µM (inactive)
GI50 (SK-MEL-5): 7.46 µM (inactive)
GI50 (HT-29): 15.2 µM (inactive)
GI50 (HOP-92): 13.4 µM (inactive)
GI50 (DU-145): 10.9 µM (inactive)
GI50 (HCC 2998): 13.3 µM (inactive)
GI50 (COLO 205): 12.7 µM (inactive)
GI50 (SK-MEL-28): 14.1 µM (inactive)
GI50 (SF-539): 9.27 µM (inactive)
GI50 (A549): 17.8 µM (inactive)
GI50 (K562): 2.96 µM (inactive)
GI50 (T47D): 16.7 µM (inactive)
